Test results taken from ChEMBL document CHEMBL1201862, “PubChem BioAssay data set” (2004).
The source made the active and inactive calls.

Tests used:
[1] = Vero E6 cell cytotoxicity, dose response, cytotoxicity control for non-replicating M. tuberculosis project, secondary assay (AID 492998); assay type: functional, VeroE6; conditions: Vero C1008
cells [2] = assay type: functional
[3] = microbe, parasite or virus in culture; assay type: functional; conditions: Mycobacterium tuberculosis
[4] = Luminescent dose response cell-based high throughput screening assay for inhibitors of the Janus kinase 2 mutant JAK2V617F. [Related pubchem assays: 1446 (Primary screen.), 1521 (Confirmation assay.), 1486 (Counter screen.)]; assay type: functional
Estrogen receptor [5] = biological target: T1, Estrogen receptor (Homo sapiens, UniProt P03372); assay: blockers of SRC-3 recruitment to ERα – biochemical, ELISA, streptavidin-HRP readout, orthogonal assay, confirmation (AID 1079)
T1 sequence (P03372 whole entry): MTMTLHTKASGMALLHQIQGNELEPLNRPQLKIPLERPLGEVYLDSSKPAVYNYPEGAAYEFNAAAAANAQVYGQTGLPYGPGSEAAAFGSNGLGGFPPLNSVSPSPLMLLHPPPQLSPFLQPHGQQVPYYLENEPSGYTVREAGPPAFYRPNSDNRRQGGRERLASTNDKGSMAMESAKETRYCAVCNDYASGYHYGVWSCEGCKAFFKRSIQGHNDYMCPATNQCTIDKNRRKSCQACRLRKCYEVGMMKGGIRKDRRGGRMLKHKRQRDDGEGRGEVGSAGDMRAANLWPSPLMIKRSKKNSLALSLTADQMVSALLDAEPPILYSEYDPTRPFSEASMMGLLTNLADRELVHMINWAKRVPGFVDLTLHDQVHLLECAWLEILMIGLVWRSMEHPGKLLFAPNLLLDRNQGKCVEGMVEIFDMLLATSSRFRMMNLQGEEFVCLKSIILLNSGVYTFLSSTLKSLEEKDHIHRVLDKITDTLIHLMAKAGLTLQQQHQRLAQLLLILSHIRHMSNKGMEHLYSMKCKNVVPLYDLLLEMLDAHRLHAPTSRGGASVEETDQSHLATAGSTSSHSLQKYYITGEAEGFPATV

[6] = biological target: Solute carrier family 12 member 2/member 5 (Homo sapiens, UniProt P55011+Q9H2X9); assay: KCC2 and NKCC1 inhibition by rubidium flux, cell-based, NKCC1 counter-screen (AID 1734); assay type: functional, HEK293
Estrogen receptor [7] = biological target: T1, Estrogen receptor; assay: ERα coactivator recruitment enhancers – biochemical, TR-FRET, ERα LBD, dose response (AID 737)
[8] = Trypanosoma cruzi growth suppression in host cells – NIH3T3 host cells, beta-gal luminescence, confirmation (AID 2044); assay type: functional, cell-based;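 also: intracellular parasites grown in NIH/3T3 mouse fibroblasts as host cells; luminescent beta-galactosidase reporter signal from transgenic T. cruzi replicating inside host cells; inhibitors lower the luminescence signal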
[9] = NIH3T3 cell viability loss – ATP luminescence, mouse fibroblasts, counter-screen, dose response (AID 2010); assay type: functional, cell-based;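 also: cells exposed to compound for about 90 hours before reading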
cells [10] = assay: cells
Cytochrome P450 2C19 = Cytochrome P450 2C19 (Homo sapiens, UniProt P33261); assay: Cytochrome panel assay with activity outcomes. Panel member name: p450-cyp2c19 Compounds with AC50 equal or less than 10 uM are considered active; assay type: functional
Cytochrome P450 2C19, sequence (P33261 whole entry): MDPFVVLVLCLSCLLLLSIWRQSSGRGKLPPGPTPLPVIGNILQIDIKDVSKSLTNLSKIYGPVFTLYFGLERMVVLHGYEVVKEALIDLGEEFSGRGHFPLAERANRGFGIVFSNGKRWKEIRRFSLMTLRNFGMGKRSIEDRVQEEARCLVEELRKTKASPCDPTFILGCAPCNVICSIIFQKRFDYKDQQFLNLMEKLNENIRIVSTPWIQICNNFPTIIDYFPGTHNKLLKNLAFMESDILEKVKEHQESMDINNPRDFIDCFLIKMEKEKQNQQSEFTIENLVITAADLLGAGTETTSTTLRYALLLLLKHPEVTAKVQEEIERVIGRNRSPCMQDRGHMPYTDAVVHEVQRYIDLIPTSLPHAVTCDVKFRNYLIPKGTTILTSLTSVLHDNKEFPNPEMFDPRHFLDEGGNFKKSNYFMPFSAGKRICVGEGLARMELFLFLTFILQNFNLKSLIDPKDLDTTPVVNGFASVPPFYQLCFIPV

[11] = biological target: E3 ubiquitin-protein ligase Mdm2 (Homo sapiens, UniProt Q00987); assay: MDM2-luc reporter signal enhancers, multi-concentration potency testing, MDM2 ubiquitin-protein ligase inhibitor program, whole-cell format, luminescence detection, 384-well microplate (AID 1394); assay type: functional;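 also: MDM2 E3 inhibitors raise luminescence so EC50 is for signal enhancement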
E3 ubiquitin-protein ligase Mdm2, sequence (Q00987 whole entry): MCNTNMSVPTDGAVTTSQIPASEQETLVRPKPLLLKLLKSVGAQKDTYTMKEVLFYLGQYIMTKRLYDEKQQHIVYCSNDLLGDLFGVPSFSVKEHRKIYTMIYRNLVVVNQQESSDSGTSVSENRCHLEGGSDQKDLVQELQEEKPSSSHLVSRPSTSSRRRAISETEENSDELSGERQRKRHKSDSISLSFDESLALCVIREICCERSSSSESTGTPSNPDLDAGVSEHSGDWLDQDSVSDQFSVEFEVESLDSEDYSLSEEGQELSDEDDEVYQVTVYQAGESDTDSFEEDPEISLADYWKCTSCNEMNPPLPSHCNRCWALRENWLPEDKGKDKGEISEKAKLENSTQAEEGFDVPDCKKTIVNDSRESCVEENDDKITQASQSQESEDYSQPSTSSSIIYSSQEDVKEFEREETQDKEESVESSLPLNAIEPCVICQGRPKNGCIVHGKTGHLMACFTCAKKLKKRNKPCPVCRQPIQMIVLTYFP

O=C(O)c1[nH]c(=O)[nH]c(=O)c1F
CC50 [1]: > 20 µM (active) | IC50 (cells [2]): 5.96 µM (active) | CC50 [3]: > 40 µM (active) | IC50 [4]: 4.12 µM (active)

O=C(CCCCCn1c(=S)[nH]c2ccccc2c1=O)N1CCN(c2ncccn2)CC1
IC50 (Estrogen receptor [5]): 0.12 µM (not active)

CCCn1c(N)c(C(=O)CSc2nnc(Cc3ccccc3)o2)c(=O)n(C)c1=O
IC50 [6]: 1.6 µM (active)

CC(C)CCNC(=O)COc1ccc2c3c(c(=O)oc2c1)CCC3
EC50 (Estrogen receptor [7]): 13.3 µM (not active)

Cc1c(O)ccc2c(CN3CCN(Cc4ccccc4)CC3)cc(=O)oc12
EC50 [8]: < 0.1 µM (active) | EC50 [9]: > 60 µM (not active) | EC50 (cells [10]): 0.024 µM (active)

CCN1CCN(C(=O)CCc2nc3ccccc3c(=O)[nH]2)CC1
AC50 (Cytochrome P450 2C19): inconclusive | EC50 [11]: 12.5 µM (not active)
